# According to patent US11981658B2, “Substituted aminopyridine compounds as EGFR inhibitors” (YUHAN CORPORATION, priority 2021, dated 2024):
# Where two headings read alike, the source gives them in different places.
# Experiments:
# EGFR Del19/T790M/C797S = EGFR Del19/T790M/C797S (Homo sapiens, UniProt P00533, C797S/DEL746-750/T790M); experiment: Biochemical EGFR kinase inhibition assay (Lance Ultra TR-FRET), triple mutant del19/T790M/C797S
# Method in brief: (§1)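 In this biochemical assay, phosphorylation after a one-hour room-temperature reaction was detected with europium-labelled anti-phosphopeptide antibody at 2 nM final concentration.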
# EGFR L858R/T790M/C797S = EGFR L858R/T790M/C797S (Homo sapiens, UniProt P00533, C797S/L858R/T790M); experiment: Biochemical EGFR kinase inhibition assay (Lance Ultra TR-FRET), triple mutant L858R/T790M/C797S
# Method in brief: as §1
# EGFR Del19/C797S = EGFR Del19/C797S (Homo sapiens, UniProt P00533, C797S/DEL746-750); experiment: Biochemical EGFR kinase inhibition assay (Lance Ultra TR-FRET), double mutant del19/C797S
# Method in brief: as §1
# EGFR L858R/C797S = EGFR L858R/C797S (Homo sapiens, UniProt P00533, C797S/L858R); experiment: Biochemical EGFR kinase inhibition assay (Lance Ultra TR-FRET), double mutant L858R/C797S
# Method in brief: as §1
# EGFR wildtype (WT) = EGFR wildtype (WT) (Homo sapiens, UniProt P00533); experiment: Biochemical EGFR kinase inhibition assay (Lance Ultra TR-FRET), wildtype
# Method in brief: as §1
# [1] = ATP at Km, read-out: IC50 Del19/T790M/C797S (nM), Km ATP
# [2] = IC50 Del19/T790M/C797S (nM), 100 μM ATP
# [3] = ATP at Km, read-out: IC50 L858R/T790M/C797S (nM), Km ATP
# [4] = IC50 L858R/T790M/C797S (nM), 100 μM ATP
# [5] = ATP at Km, read-out: IC50 Del19/C797S (nM), Km ATP
# [6] = IC50 Del19/C797S (nM), 100 μM ATP
# [7] = ATP at Km, read-out: IC50 L858R/C797S (nM), Km ATP
# [8] = IC50 L858R/C797S (nM), 100 μM ATP
# [9] = ATP at Km, read-out: IC50 WT (nM), Km ATP
# [10] = Km ATP, read-out: IC50 Del19/T790M/C797S (nM) Km ATP
# [11] = Km ATP, read-out: IC50 L858R/T790M/C797S (nM) Km ATP
# [12] = Km ATP, read-out: IC50 Del19/C797S (nM) Km ATP
# [13] = Km ATP, read-out: IC50 L858R/C797S (nM) Km ATP
# [14] = Km ATP, read-out: IC50 WT (nM) Km ATP
# [15] = Km ATP, read-out: IC50 Del19/T790M/C797S (nM), Km ATP
# [16] = Km ATP, read-out: IC50 L858R/T790M/C797S (nM), Km ATP
# [17] = Km ATP, read-out: IC50 Del19/C797S (nM), Km ATP
# [18] = Km ATP, read-out: IC50 L858R/C797S (nM), Km ATP
# [19] = Km ATP, read-out: IC50 WT (nM), Km ATP
# EGFR Del19/T790M/C797S, sequence (P00533 with tags, fused parts or gaps DEL746-750/T790M/C797S): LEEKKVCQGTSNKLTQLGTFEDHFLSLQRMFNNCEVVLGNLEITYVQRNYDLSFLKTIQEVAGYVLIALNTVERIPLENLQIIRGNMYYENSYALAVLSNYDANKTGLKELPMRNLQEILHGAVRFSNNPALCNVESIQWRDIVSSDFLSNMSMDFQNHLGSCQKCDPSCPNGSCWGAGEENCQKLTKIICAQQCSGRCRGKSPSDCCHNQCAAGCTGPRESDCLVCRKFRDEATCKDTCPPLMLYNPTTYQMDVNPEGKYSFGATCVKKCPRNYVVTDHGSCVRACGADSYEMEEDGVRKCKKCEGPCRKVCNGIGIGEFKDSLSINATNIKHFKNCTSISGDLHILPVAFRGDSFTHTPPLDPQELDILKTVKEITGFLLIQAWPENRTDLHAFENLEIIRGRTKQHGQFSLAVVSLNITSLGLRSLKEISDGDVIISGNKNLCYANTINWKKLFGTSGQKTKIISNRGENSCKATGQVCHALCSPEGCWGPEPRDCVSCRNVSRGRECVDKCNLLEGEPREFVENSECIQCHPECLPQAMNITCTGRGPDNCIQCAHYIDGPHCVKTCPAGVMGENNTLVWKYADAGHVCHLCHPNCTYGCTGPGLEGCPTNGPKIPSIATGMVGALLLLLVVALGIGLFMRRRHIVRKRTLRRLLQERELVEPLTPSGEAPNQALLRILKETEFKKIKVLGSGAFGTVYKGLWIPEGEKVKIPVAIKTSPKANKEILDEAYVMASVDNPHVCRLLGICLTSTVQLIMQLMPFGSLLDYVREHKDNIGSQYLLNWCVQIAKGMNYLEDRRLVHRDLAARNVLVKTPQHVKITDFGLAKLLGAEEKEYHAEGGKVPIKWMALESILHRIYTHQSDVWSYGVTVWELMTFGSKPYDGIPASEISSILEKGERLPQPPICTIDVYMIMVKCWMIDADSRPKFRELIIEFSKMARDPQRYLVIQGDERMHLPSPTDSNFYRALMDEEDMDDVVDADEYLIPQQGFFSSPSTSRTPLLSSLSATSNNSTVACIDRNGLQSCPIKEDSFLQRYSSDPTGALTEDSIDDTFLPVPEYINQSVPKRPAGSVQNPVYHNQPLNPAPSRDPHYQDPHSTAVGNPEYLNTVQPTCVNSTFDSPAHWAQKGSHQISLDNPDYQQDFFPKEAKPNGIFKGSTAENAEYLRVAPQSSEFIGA
# EGFR Del19/C797S, sequence (P00533 with tags, fused parts or gaps DEL746-750/C797S): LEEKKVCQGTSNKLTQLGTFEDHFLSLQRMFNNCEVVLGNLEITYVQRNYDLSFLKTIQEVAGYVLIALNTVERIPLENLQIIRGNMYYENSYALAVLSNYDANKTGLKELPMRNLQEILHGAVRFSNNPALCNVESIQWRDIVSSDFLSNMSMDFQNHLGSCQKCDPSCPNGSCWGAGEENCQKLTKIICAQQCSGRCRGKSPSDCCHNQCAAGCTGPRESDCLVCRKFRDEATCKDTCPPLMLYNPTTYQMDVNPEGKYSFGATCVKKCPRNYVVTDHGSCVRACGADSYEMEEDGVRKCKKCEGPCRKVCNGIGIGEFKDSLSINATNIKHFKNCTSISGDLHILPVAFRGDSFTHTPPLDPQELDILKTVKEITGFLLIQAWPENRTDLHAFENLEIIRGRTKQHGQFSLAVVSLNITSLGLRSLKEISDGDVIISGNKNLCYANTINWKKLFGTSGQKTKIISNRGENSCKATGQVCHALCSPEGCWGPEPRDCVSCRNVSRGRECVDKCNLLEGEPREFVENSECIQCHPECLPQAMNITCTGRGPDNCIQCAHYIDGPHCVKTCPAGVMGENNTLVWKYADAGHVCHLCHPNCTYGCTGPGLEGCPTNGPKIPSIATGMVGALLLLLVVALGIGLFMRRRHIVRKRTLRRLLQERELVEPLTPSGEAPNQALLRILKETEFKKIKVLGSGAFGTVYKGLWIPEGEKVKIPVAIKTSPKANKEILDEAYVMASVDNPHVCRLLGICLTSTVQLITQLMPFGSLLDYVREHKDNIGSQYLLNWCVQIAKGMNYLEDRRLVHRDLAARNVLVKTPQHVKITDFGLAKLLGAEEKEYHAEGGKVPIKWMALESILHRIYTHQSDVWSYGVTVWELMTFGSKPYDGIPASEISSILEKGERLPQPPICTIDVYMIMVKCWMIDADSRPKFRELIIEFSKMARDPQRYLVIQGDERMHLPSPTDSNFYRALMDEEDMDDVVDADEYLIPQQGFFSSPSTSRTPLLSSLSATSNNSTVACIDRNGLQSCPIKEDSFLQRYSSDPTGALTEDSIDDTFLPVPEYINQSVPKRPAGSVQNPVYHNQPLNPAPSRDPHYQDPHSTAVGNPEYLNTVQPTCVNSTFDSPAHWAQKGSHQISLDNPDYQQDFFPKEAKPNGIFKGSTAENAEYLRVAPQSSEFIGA
# EGFR L858R/C797S, sequence (P00533 25-1210 C797S/L858R): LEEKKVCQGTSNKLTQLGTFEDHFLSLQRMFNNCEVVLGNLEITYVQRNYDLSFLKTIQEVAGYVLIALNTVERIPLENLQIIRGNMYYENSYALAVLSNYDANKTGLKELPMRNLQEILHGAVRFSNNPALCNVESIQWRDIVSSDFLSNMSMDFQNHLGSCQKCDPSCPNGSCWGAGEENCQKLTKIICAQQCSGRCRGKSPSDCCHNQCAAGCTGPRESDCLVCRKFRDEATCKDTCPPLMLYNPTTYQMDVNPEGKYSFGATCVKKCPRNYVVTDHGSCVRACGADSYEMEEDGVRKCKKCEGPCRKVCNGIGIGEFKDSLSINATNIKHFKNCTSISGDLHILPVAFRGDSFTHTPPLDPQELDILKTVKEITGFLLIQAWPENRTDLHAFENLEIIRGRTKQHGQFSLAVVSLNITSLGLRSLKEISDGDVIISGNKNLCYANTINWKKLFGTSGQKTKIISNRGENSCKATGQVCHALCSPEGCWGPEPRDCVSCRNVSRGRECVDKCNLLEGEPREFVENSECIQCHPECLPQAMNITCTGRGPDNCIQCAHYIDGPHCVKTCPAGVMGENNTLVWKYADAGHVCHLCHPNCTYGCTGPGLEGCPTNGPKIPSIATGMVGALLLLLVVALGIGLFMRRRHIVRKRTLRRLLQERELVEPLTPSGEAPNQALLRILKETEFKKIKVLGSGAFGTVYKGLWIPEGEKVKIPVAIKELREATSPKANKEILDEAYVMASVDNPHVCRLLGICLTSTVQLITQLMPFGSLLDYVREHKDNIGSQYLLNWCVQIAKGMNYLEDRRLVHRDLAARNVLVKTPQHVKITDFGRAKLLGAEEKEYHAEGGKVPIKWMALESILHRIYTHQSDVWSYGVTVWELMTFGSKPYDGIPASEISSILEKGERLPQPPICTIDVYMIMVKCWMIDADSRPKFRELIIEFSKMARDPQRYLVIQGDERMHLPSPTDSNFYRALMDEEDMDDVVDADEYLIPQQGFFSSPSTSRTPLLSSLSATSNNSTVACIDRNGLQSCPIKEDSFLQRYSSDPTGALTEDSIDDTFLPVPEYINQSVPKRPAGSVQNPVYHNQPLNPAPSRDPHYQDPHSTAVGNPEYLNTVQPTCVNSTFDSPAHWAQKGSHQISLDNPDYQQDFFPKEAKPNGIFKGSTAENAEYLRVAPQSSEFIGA
# EGFR wildtype (WT), sequence (P00533 25-1210): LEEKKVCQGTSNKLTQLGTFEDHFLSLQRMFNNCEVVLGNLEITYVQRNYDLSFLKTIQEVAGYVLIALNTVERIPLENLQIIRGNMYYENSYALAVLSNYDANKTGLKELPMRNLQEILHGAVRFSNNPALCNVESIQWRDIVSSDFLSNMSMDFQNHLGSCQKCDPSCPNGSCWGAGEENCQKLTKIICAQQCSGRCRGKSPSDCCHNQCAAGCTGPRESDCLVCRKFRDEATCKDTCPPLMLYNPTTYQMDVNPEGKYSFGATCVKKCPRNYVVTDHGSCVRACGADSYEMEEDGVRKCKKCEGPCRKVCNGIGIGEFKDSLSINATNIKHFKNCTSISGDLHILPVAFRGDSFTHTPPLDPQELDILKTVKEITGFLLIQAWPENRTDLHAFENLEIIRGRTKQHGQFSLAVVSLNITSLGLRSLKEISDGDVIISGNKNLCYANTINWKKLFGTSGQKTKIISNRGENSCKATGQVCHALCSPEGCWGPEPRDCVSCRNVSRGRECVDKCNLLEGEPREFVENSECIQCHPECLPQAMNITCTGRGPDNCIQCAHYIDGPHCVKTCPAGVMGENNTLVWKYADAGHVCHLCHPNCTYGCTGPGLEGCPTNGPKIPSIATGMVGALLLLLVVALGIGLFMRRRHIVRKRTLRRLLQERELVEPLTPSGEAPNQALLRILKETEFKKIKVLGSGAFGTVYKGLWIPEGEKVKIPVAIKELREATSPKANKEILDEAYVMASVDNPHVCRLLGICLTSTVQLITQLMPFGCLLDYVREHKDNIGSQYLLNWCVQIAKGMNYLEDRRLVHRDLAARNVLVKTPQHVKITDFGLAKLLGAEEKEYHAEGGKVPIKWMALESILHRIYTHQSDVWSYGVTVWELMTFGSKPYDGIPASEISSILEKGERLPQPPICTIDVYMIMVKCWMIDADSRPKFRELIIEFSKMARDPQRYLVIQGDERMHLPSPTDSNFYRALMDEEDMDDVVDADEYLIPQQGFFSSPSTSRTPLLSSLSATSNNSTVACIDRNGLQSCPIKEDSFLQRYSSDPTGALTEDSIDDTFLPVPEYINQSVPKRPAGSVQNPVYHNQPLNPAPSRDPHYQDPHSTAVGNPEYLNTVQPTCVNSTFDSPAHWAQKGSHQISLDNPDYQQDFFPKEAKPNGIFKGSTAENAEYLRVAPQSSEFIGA
Structure (SMILES),IC50 (EGFR Del19/T790M/C797S; [2]) [nM],IC50 (EGFR L858R/T790M/C797S; [4]) [nM],IC50 (EGFR Del19/C797S; [5]) [nM],IC50 (EGFR Del19/C797S; [6]) [nM],IC50 (EGFR L858R/C797S; [7]) [nM],IC50 (EGFR L858R/C797S; [8]) [nM],IC50 (EGFR wildtype (WT); [9]) [nM],"IC50 (EGFR wildtype (WT); IC50 WT (nM), 100 μM ATP) [nM]",further results
"Nc1cccc(C#Cc2cnc(Nc3ccnc(-c4cnn(S(=O)(=O)C5CC5)c4)n3)cc2N[C@@H]2CCC[C@H](O)C2)c1 [Example 169, (1 S,3R)-3-((5-((3-Aminophenyl)ethynyl)-2-((2-(1-(cyclopropylsulfonyl)-1H-pyrazol-4-yl)pyrimidin-4-yl)amino)pyridin-4-yl)amino)cyclohexan-1-ol]",3.1,6.8,4.7,10.5,30.6,391,238,> 10000,IC50 (EGFR Del19/T790M/C797S; [1]): 7.1 nM; IC50 (EGFR L858R/T790M/C797S; [3]): 2.6 nM
"O=S(=O)(C1CC1)n1cc(-c2nccc(Nc3cc(N4CCCC(O)C4)c(C#Cc4ccc(N5CCOCC5)nc4)cn3)n2)cn1 (stereo not drawn) [Example 227, 1-(2-((2-(1-(Cyclopropylsulfonyl)-1H-pyrazol-4-yl)pyrimidin-4-yl)amino)-5-((6-morpholinopyridin-3-yl)ethynyl)pyridin-4-yl)piperidin-3-ol]",4.6,18.3,,94.7,,294,,> 10000,
"CN(C)C[C@H]1CC[C@@H](Nc2cc(Nc3ccnc(-c4cnn(S(=O)(=O)C5CC5)c4)n3)ncc2C#Cc2cnn(CC3CC3)c2)CC1 [Example 309, 5-((1-(Cyclopropylmethyl)-1H-pyrazol-4-yl)ethynyl)-N^2-(2-(1-(cyclopropylsulfonyl)-1H-pyrazol-4-yl)pyrimidin-4-yl)-N^4-((1s,4s)-4-((dimethylamino)methyl)cyclohexyl)pyridine-2,4-diamine]",1,1.1,2.4,3.1,1,43.8,24.3,7630,
"CC1(CO)CCN(c2cc(Nc3ccnc(-c4cnn(S(=O)(=O)C5CC5)c4)n3)ncc2C#CC2(O)CCCCC2)CC1 [Example 175, 1-((6-((2-(1-(Cyclopropylsulfonyl)-1H-pyrazol-4-yl)pyrimidin-4-yl)amino)-4-(4-(hydroxymethyl)-4-methylpiperidin-1-yl)pyridin-3-yl)ethynyl)cyclohexan-1-ol]",1.4,3.6,13.3,17.2,33.5,333,131,> 10000,IC50 (EGFR Del19/T790M/C797S; [1]): 1.2 nM; IC50 (EGFR L858R/T790M/C797S; [3]): 3.6 nM
"Cn1ccc(C#Cc2cnc(Nc3ccnc(-c4cnn(S(=O)(=O)C5CC5)c4)n3)cc2N2CCC(NCCF)CC2)n1 [Example 141, 2-(1-(Cyclopropylsulfonyl)-1H-pyrazol-4-yl)-N-(4-(4-((2-fluoroethyl)amino)piperidin-1-yl)-5-((1-methyl-1H-pyrazol-3-yl)ethynyl)pyridin-2-yl)pyrimidin-4-amine]",0.9,3.4,,49.1,,1900,,> 10000,IC50 (EGFR Del19/T790M/C797S; [10]): 0.7 nM; IC50 (EGFR L858R/T790M/C797S; [11]): 0.7 nM; IC50 (EGFR Del19/C797S; [12]): 48.7 nM; IC50 (EGFR L858R/C797S; [13]): 13.7 nM; IC50 (EGFR wildtype (WT); [14]): 256 nM
"CN(C)C(=O)Cn1cc(C#Cc2cnc(Nc3ccnc(-c4cnn(S(=O)(=O)C5CC5)c4)n3)cc2N[C@H]2CC[C@@](C)(O)CC2)cn1 [Example 221, 2-(4-((6-((2-(1-(Cyclopropylsulfonyl)-1H-pyrazol-4-yl)pyrimidin-4-yl)amino)-4-(((1s,4s)-4-hydroxy-4-methylcyclohexyl)amino)pyridin-3-yl)ethynyl)-1H-pyrazol-1-yl)-N,N-dimethylacetamide]",,,,,,,,,"IC50 (EGFR Del19/T790M/C797S; [10]): 2.9 nM; IC50 (EGFR Del19/T790M/C797S; read-out: IC50 Del19/T790M/C797S (nM), 100 μM ATP): 2 nM; IC50 (EGFR L858R/T790M/C797S; [11]): 0.8 nM; IC50 (EGFR L858R/T790M/C797S; read-out: IC50 L858R/T790M/C797S (nM), 100 μM ATP): 2.2 nM; IC50 (EGFR Del19/C797S; [12]): 6.3 nM; IC50 (EGFR Del19/C797S; read-out: IC50 Del19/C797S (nM), 100 μM ATP): 8.4 nM; IC50 (EGFR L858R/C797S; [13]): 3.8 nM; IC50 (EGFR L858R/C797S; read-out: IC50 L858R/C797S (nM), 100 μM ATP): 33 nM; IC50 (EGFR wildtype (WT); [14]): 65 nM; IC50 (EGFR wildtype (WT); read-out: IC50 WT (nM), 100 μM ATP): > 10000 nM"
"CC1(CO)CCN(c2cc(Nc3ccnc(-c4cnn(S(=O)(=O)C5CC5)c4)n3)ncc2C#Cc2cc(C(F)(F)F)n[nH]2)CC1 [Example 290, (1-(2-((2-(1-(Cyclopropylsulfonyl)-1H-pyrazol-4-yl)pyrimidin-4-yl)amino)-5-((3-(trifluoromethyl)-1H-pyrazol-5-yl)ethynyl)pyridin-4-yl)-4-methylpiperidin-4-yl)methanol]",5.7,8.6,,26.2,,> 10000,,> 10000,
"CN(C)C[C@H]1CC[C@H](CNc2cc(Nc3ccnc(-c4cnn(S(=O)(=O)C5CC5)c4)n3)ncc2C#Cc2cnn(C)c2)CC1 [Example 53, N^2-(2-(1-(Cyclopropylsulfonyl)-1H-pyrazol-4-yl)pyrimidin-4-yl)-N^4-(((1r,4r)-4-((dimethylamino)methyl)cyclohexyl)methyl)-5-((1-methyl-1H-pyrazol-4-yl)ethynyl)pyridine-2,4-diamine]",,,,,,,,,IC50 (EGFR Del19/T790M/C797S; [10]): 0.4 nM; IC50 (EGFR L858R/T790M/C797S; [11]): 0.3 nM; IC50 (EGFR Del19/C797S; [12]): 5.9 nM; IC50 (EGFR L858R/C797S; [13]): 141 nM; IC50 (EGFR wildtype (WT); [14]): 142 nM
"CC1(CO)CCN(c2cc(Nc3ccnc(-c4cnn(S(=O)(=O)C5CC5)c4)n3)ncc2C#Cc2cccnc2)CC1 [Example 260, (1-(2-((2-(1-(Cyclopropylsulfonyl)-1H-pyrazol-4-yl)pyrimidin-4-yl)amino)-5-(pyridin-3-ylethynyl)pyridin-4-yl)-4-methylpiperidin-4-yl)methanol]",0.4,0.3,0.3,0.5,1,10.8,2.1,832,IC50 (EGFR Del19/T790M/C797S; [1]): 0.5 nM; IC50 (EGFR L858R/T790M/C797S; [3]): 0.2 nM
"O=S(=O)(C1CC1)n1cc(-c2nccc(Nc3cc(N4C[C@H]5C[C@@]5(CO)C4)c(C#Cc4cnn(C(F)(F)F)c4)cn3)n2)cn1 [Example 333, ((1 S,5S)-3-(2-((2-(1-(Cyclopropylsulfonyl)-1H-pyrazol-4-yl)pyrimidin-4-yl)amino)-5-((1-(trifluoromethyl)-1H-pyrazol-4-yl)ethynyl)pyridin-4-yl)-3-azabicyclo[3.1.0]hexan-1-yl)methanol]",17.8,13,,255,,> 10000,,> 10000,IC50 (EGFR Del19/T790M/C797S; [15]): 6.8 nM; IC50 (EGFR L858R/T790M/C797S; [16]): 3.5 nM; IC50 (EGFR Del19/C797S; [17]): 133 nM; IC50 (EGFR L858R/C797S; [18]): 245 nM; IC50 (EGFR wildtype (WT); [19]): 240 nM
"O=S(=O)(C1CC1)n1cc(-c2nccc(Nc3cc(NC4CCC(CO)CC4)c(C#CC4(F)CCOC4)cn3)n2)cn1 (stereo not drawn) [Example 434, ((1s,4s)-4-((2-((2-(1-(Cyclopropylsulfonyl)-1H-pyrazol-4-yl)pyrimidin-4-yl)amino)-5-((3-fluorotetrahydrofuran-3-yl)ethynyl)pyridin-4-yl)amino)cyclohexyl)methanol]",0.3,0.5,,5.2,,125,,8890,IC50 (EGFR Del19/T790M/C797S; [15]): 0.4 nM; IC50 (EGFR L858R/T790M/C797S; [16]): 0.2 nM; IC50 (EGFR Del19/C797S; [17]): 2.3 nM; IC50 (EGFR L858R/C797S; [18]): 2.4 nM; IC50 (EGFR wildtype (WT); [19]): 21.2 nM
